Data from patent US10292965B2, “Nintedanib diethanesulfonate salt crystal and preparation method and use thereof” (Chia Tai Tianqing Pharmaceutical Group Co., Ltd., priority 2015, dated 2019).

Experiments:
Type in all cases: physicochemical
[1] = Moisture content after storage under high humidity and accelerated test conditions; details: high humidity (25° C., 92.5% RH) and accelerated test conditions (40±2° C., 75%±5% RH) for 10 days
[2] = Stability test (influence factors: high-humidity, light irradiation, accelerated test); sample purity measured; details: for purity of the sample, accelerated test: accelerated test 40° C.±2° C., relative humidity 75%±5%; for purity of the sample, initial value: day 0, initial value; for purity of the sample, high-humidity test: high-humidity 25° C., 92.5% RH; for purity of the sample, light irradiation test: light irradiation 10000 lx±500 lx
Excerpt: The tests last for 10 days. Samples were taken on days 0, 5 and 10 to measure the purities of the samples so as to determine their stabilities.

[3] = Intrinsic dissolution rate, rotating disk method (USP Chapter 1087); details: 700 ml 0.1 mol/L hydrochloric acid, 300 rpm, 37° C., detection 287 nm
Protocol: Intrinsic dissolution rates of the crystalline Form A of nintedanib diethanesulfonate prepared in Example 1 and the crystalline form of nintedanib diethanesulfonate prepared according to WO2012068441 (the existing crystal) were determined by using the intrinsic dissolution rotating disk method in Chapter 1087 of the U.S. Pharmacopeia, and the results are shown in Table 2. Dissolution Medium: 700 ml of 0.1 mol/L hydrochloric acid solution, Rotating Speed: 300 rpm, Detection Wavelength: 287 nm, Medium Temperature: 37° C.

| Compound | moisture content ([1]; listed as crystalline Form A of nintedanib diethanesulfonate) | purity of the sample, accelerated test ([2]; day 10) | purity of the sample, initial value [2] | purity of the sample, high-humidity test ([2]; day 5) | purity of the sample, high-humidity test ([2]; day 10) | purity of the sample, light irradiation test ([2]; day 5) | purity of the sample, light irradiation test ([2]; day 10) | Average dissolution rate [3] | Maximum dissolution rate [3] | character (appearance) after storage [1] | moisture content ([1]; listed as crystalline form of nintedanib diethanesulfonate prepared according to WO2012068) |
| --- | --- | --- | --- | --- | --- | --- | --- | --- | --- | --- | --- |
| CCS(=O)(=O)O.COC(=O)c1ccc2c(c1)NC(=O)/C2=C(\Nc1ccc(N(C)C(=O)CN2CCN(C)CC2)cc1)c1ccccc1 [The crystalline Form A, nintedanib diethanesulfonate] | essentially unchanged | 99.77% | 99.80% | 99.78% | 99.79% | 99.79% | 99.70% | 22.508 µg/mL/min | 23.344 µg/mL/min | – | – |
| CCS(=O)(=O)O.COC(=O)c1ccc2c(c1)NC(=O)/C2=C(\Nc1ccc(N(C)C(=O)CN2CCN(C)CC2)cc1)c1ccccc1 [The existing crystal, nintedanib diethanesulfonate] | – | 95.10% | 99.78% | 99.72% | 99.67% | 99.73% | 99.19% | 13.373 µg/mL/min | 14.689 µg/mL/min | absorbs moisture to become clumping | increases significantly |
